Measurements published in patent publication US4418068A, “Antiestrogenic and antiandrugenic benzothiophenes” (Eli Lilly and Company, priority 1981, dated 1983).

Assays:
[1] = test system: estrogenic response; assay: Regression Test: reversal of established estrogenic response (uterine weight); type: in vivo, immature rats; settings: estradiol 0.1 mcg./day 3 days
Method: The following test was carried out to determine if the compounds of this invention could reverse an estrogenic response, when administration of the compound was started after the estrogenic response had become established.
The test animals were immature rats, and all administrations were by subcutaneous injection.
The mean uterine weights of these groups of animals, respectively, were 97.9, 97.3, 119.9 and 112.3 mg.
The animals were sacrificed on the fifth day and their mean uterine weight was 56.4 mg.
The animals were sacrificed on the seventh day and their mean uterine weight was 57.0 mg.

[2] = test system: androgen-stimulated prostate growth; assay: Anti-Androgen Test, adult castrated male rats (ventral prostate weight); type: in vivo; settings: for Mean Prostate Weight: Experiment A
Method: The antiandrogenic property of the compounds was evaluated in the following tests, in which the compound of Example 3 was used again.
The animals used in this test were adult male rats having a body weight which averaged about 330 g. when the experiment ended. All of the animals to be used in the experiment were castrated by the scrotal route, and were held untreated for 3 days. On the fourth day, subcutaneous administration of 0.1 mg./day of an exogenous androgen, testosterone propionate, was begun, and was continued for seven consecutive days. An untreated control group of animals received injections of 0.1 ml./day of corn oil as a blank treatment. The compound of this invention was administered orally or subcutaneously to the treated animals in 0.1 ml. of corn oil, at the same time that the androgen was administered. The animals were sacrificed 24 hours after the last injection of testosterone propionate, the ventral prostate glands were removed and weighed, and the mean of the weights of each treatment group was reported. The table below reports the mean weights resulting from administration of various doses of the compound along with androgen.
Each treatment group of animals in this experiment consisted of seven to nine animals, except for the untreated control group, which contained twelve animals.

[3] = test system: estrogenic response of estradiol; assay: Antiestrogenic Test, mature ovariectomized mice (uterine weight); type: in vivo, adult ovariectomized mice; settings: Experiment A, s.c. + estradiol 0.3 mcg.
Method: (§1) This test was conducted with immature 40-45 g. female rats, immature 11-13 g. mice, and adult ovariectomized mice. The rats were tested in groups of six, and mice in groups of ten. All of the laboratory animals were from standardized strains and were equilibrated to the laboratory before the test started. Each test was begun by administering the test compound daily for three days, as a subcutaneous injection or by oral gavage, as indicated below in the reports of individual experiments.
(§2) The test animals were treated for three days and sacrificed on the fourth day, and the uteri were removed, freed of extraneous tissue, and blotted with paper towels. The uteri were weighed to the nearest 0.1 mg.
(§3) The uterine weights are given, in mg., as the means of all of the organ weights of the animals in a group. Compounds are referred to by their example numbers above.
(§4) The same standardized types of laboratory animals which were used in the experiments described above were also used in these experiments. […] Untreated control animals were used in each experiment. […] The dosage and sacrifice schedule, and the method of determining uterine weights and reporting data, were the same as the methods described above under Test 1.

[4] = test system: estrogenic response of estradiol; assay: Antiestrogenic Test, immature mice (uterine weight); type: in vivo; settings: Experiment B, s.c. + estradiol 0.3 mcg.
Method: as §1, §2, §3, §4

[5] = test system: estrogenic response; assay: Estrogenic Response Test, immature rats (uterine weight); type: in vivo, immature 40-45 g. female rats
Method: The first test reported below is used to determine the estrogenic potency of compounds. It is well known that many compounds having antiestrogenic activity also, typically, have estrogenic activity. As has been explained, estrogenic activity is a liability in an antiestrogen, and thus it is important to identify antiestrogens having a minimum amount of estrogenic activity. This test was conducted with immature 40-45 g. female rats, immature 11-13 g. mice, and adult ovariectomized mice. The rats were tested in groups of six, and mice in groups of ten. All of the laboratory animals were from standardized strains and were equilibrated to the laboratory before the test started. Each test was begun by administering the test compound daily for three days, as a subcutaneous injection or by oral gavage, as indicated below in the reports of individual experiments. Untreated control animals were included in each experiment, along with animals to which estradiol was administered subcutaneously. The estradiol-treated animals provided positive controls, showing the physiological effect of a potent estrogen on the individual group of animals used in the experiment. […] The test animals were treated for three days and sacrificed on the fourth day, and the uteri were removed, freed of extraneous tissue, and blotted with paper towels. The uteri were weighed to the nearest 0.1 mg. The tables below report the results of representative experiments. The doses of estradiol and of the compound of this invention are given as the total of the three daily doses. The uterine weights are given, in mg., as the means of all of the organ weights of the animals in a group. Compounds are referred to by their example numbers above.

`O=C(c1ccc(OCCN2CCCCC2)cc1)c1c(-c2ccc(O)cc2)sc2cc(O)ccc12` [Example 3, 6-hydroxy-2-(4-hydroxyphenyl)-3-[4-(2-piperidinoethoxy)benzoyl]benzo[b]thiophene] was tested. Which mean uterine weight ([1]; then estradiol + 1 mg. compound s.c. on following five days, sacrificed ninth day) did it give?
Its mean uterine weight is 50.7 mg.

What about the mean uterine weight ([1]; then estradiol + 1 mg. compound s.c. on following three days, sacrificed seventh day) of the same compound?
Its mean uterine weight is 57.0 mg.

And the mean uterine weight ([1]; then estradiol + 1 mg. compound s.c. on fourth day, sacrificed fifth day)?
Its mean uterine weight is 56.4 mg.

What about the “Mean Prostate Weight” value ([2]; 0.01 mg./day, S.C. + testosterone propionate 0.1 mg./day) of the same compound?
Its value is 253 mg.

And the “Mean Prostate Weight” value ([2]; 0.01 mg./day, oral + testosterone propionate 0.1 mg./day)?
The value was 192 mg.

And the “Mean Prostate Weight” value ([2]; 0.1 mg./day, S.C. + testosterone propionate 0.1 mg./day)?
The value was 235 mg.

What about the “Mean Prostate Weight” value ([2]; 0.1 mg./day, oral + testosterone propionate 0.1 mg./day) of the same compound?
The value was 267 mg.

What about the “Mean Prostate Weight” value ([2]; 1 mg./day, S.C. + testosterone propionate 0.1 mg./day) of the same compound?
The value was 201 mg.

And the “Mean Prostate Weight” value ([2]; 1 mg./day, oral + testosterone propionate 0.1 mg./day)?
The value was 242 mg.

What about the “effect on androgen-stimulated prostate growth” value ([2]; conclusion in words, Experiments A-C) of the same compound?
Its value is “inhibited a large part of the abnormal prostate growth”.

What about the Uterine weight ([3]; 3 mg.) of the same compound?
Its Uterine weight is 21.3 mg.

What about the Uterine weight ([3]; 0.3 mcg.) of the same compound?
Its Uterine weight is 54.9 mg.

And the Uterine weight ([3]; 3 mcg.)?
Its Uterine weight is 48.7 mg.

What about the Uterine weight ([3]; 30 mcg.) of the same compound?
The Uterine weight was 31.1 mg.

And the Uterine weight ([3]; 300 mcg.)?
Its Uterine weight is 22.1 mg.

And the Uterine weight ([4]; 3 mg.)?
Its Uterine weight is 13.9 mg.

And the Uterine weight ([4]; 0.03 mcg.)?
The Uterine weight was 41.3 mg.

And the Uterine weight ([4]; 0.3 mcg.)?
The Uterine weight was 40.6 mg.

What about the Uterine weight ([4]; 3 mcg.) of the same compound?
Its Uterine weight is 26.5 mg.

And the Uterine weight ([4]; 30 mcg.)?
The Uterine weight was 18.9 mg.

What about the Uterine weight ([4]; 300 mcg.) of the same compound?
Its Uterine weight is 14.6 mg.

What about the “Uterine weight” value ([5]; Experiment A, total dose 3 mg., s.c.) of the same compound?
Its value is 33.9 mg.

What about the “Uterine weight” value ([5]; Experiment A, total dose 3 mcg., s.c.) of the same compound?
Its value is 47.7 mg.

And the “Uterine weight” value ([5]; Experiment A, total dose 30 mcg., s.c.)?
Its value is 38.4 mg.

And the “Uterine weight” value ([5]; Experiment A, total dose 300 mcg., s.c.)?
Its value is 35.9 mg.

And the “Uterine weight” value ([5]; Experiment B, total dose 3 mcg., oral (first line))?
Its value is 34.5 mg.

What about the “Uterine weight” value ([5]; Experiment B, total dose 30 mcg., oral) of the same compound?
The value was 34.4 mg.

What about the “Uterine weight” value ([5]; Experiment B, total dose 300 mcg., oral) of the same compound?
The value was 33.2 mg.

What about the “Uterine weight” value ([5]; Experiment B, total dose printed 3 mcg., oral (last line)) of the same compound?
The value was 34.4 mg.
